From patent publication US20260285855A1, “HETEROARYL DERIVATIVES AS DDRS INHIBITORS” (CHIESI FARMACEUTICI S.P.A., priority 2023, published 2026) come the findings set out here.

SMILES strings stand for the structures.

Assay [1] addresses T1, DDR2 (Homo sapiens, UniProt Q16832).
T1 construct: purchased Life Technologies
T1 sequence (Q16832 22-855): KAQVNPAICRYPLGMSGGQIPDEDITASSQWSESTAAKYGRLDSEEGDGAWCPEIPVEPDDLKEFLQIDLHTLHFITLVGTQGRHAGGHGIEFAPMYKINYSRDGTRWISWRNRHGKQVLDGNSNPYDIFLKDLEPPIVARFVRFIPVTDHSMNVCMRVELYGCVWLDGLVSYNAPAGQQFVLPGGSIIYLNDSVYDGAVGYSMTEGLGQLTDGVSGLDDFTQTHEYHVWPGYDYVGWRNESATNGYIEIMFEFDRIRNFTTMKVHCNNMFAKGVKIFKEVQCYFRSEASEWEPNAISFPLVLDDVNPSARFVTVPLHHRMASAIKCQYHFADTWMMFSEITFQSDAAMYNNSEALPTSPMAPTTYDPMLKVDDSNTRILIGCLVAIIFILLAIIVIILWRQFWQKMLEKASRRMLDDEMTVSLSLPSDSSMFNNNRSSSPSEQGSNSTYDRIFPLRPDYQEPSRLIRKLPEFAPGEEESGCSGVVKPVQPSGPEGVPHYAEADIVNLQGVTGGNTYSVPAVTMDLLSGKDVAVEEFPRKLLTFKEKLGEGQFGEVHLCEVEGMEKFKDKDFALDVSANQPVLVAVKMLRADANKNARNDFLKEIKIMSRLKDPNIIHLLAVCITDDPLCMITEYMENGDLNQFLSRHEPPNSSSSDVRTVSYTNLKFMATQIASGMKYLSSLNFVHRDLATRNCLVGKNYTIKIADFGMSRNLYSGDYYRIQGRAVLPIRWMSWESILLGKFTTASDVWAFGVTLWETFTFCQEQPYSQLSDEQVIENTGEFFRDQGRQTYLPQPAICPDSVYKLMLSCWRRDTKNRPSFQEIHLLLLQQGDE
Kind of assay: LanthaScreen Europium Kinase Binding assay, DDR2. To be noted: 5 nM DDR2, 10 nM Kinase Tracer 178, 1 h at rt; Ki from IC50 by Cheng-Prusoff; read-out: Ki DDR2. The protocol: (§1) DDR1 and DDR2 binding assays were performed using Life Technologies LanthaScreen™ Europium Kinase Binding assay. […] IC50 values were determined in GraphPad Prism 7.0 software, using 4 parameter model: log (inhibitor) vs. response. IC50 values were converted in Ki using the Cheng-Prusoff equation (Ki-IC50/(1+ [Tracer]/Kd).

The target of assay [2] is T2, DDR1 (Homo sapiens, UniProt Q08345).
T2 construct: purchased Carna Biosciences
T2 sequence (Q08345 19-913): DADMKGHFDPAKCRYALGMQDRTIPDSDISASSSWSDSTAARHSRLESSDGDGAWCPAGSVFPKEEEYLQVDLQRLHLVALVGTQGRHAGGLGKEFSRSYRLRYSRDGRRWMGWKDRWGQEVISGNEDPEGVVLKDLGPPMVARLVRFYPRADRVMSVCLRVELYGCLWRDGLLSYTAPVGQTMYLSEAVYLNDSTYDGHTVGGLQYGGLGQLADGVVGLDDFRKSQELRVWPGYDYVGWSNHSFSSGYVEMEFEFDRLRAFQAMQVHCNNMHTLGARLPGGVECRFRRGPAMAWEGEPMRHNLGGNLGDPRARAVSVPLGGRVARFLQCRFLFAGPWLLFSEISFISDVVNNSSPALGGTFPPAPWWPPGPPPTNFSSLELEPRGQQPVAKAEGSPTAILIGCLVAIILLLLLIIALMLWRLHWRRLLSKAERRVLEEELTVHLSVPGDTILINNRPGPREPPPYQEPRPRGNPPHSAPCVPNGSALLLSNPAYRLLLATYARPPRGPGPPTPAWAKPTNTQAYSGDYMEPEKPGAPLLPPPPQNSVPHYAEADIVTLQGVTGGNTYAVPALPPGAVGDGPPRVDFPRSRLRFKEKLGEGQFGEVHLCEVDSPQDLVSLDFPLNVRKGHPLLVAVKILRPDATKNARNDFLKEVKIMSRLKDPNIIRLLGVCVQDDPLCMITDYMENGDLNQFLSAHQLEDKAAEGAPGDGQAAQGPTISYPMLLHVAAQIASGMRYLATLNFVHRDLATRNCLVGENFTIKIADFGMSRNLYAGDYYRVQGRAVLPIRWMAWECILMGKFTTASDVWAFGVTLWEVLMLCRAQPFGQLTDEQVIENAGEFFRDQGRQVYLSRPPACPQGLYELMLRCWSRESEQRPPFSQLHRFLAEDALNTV
Kind of assay: LanthaScreen Europium Kinase Binding assay, DDR1. The note with it: 5 nM DDR1, 20 nM Kinase Tracer 178, 1 h at rt; Ki from IC50 by Cheng-Prusoff; read-out: Ki DDR1. The protocol: as §1

For the molecule `Cn1ccn2ncc(C(=O)N3CC4(CC(NC(=O)Nc5cccc(S(F)(F)(F)(F)F)c5)C4)C3)c12` [Example 42, 1-(2-(1-methyl-1H-imidazo[1,2-b]pyrazole-7-carbonyl)-2-azaspiro[3.3]heptan-6-yl)-3-(3-(pentafluoro-16-sulfaneyl)phenyl)urea], the inhibitory constant (Ki) in assay [1] is 5 to 25 nM; in assay [2] it was less than 5 nM.

For the molecule `Cc1ccc(-n2nc(C(C)(C)C)cc2NC(=O)NC2CC3(C2)CN(C(=O)c2cnn4ccn(C)c24)C3)cc1` [Example 43, 1-(3-(tert-butyl)-1-(p-tolyl)-1H-pyrazol-5-yl)-3-(2-(1-methyl-1H-imidazo[1,2-b]pyrazole-7-carbonyl)-2-azaspiro[3.3]heptan-6-yl)urea], the Ki in assay [1] is 5 to 25 nM; in assay [2] it was less than 5 nM.

In the case of `O=C(Nc1cccc(C(F)(F)F)c1)NC1CC2(C1)CN(C(=O)c1ccncc1)C2` [Example 44, 1-(2-isonicotinoyl-2-azaspiro[3.3]heptan-6-yl)-3-(3-(trifluoromethyl)phenyl)urea], the Ki in assay [1] and in assay [2] was 25 to 100 nM each time.

For the molecule `Cn1ccn2ncc(C(=O)N3CC4(CC(NC(=O)Nc5cc(C(F)(F)F)ccc5Cl)C4)C3)c12` [Example 45, 1-(2-chloro-5-(trifluoromethyl)phenyl)-3-(2-(1-methyl-1H-imidazo[1,2-b]pyrazole-7-carbonyl)-2-azaspiro[3.3]heptan-6-yl)urea], the Ki in assay [1] and in assay [2] was less than 5 nM each time.

For `O=C(Nc1cccc(C(F)(F)F)c1)NC1CC2(C1)CN(C(=O)c1ccnc3cc[nH]c13)C2` [Example 46, 1-(2-(1H-pyrrolo[3,2-b]pyridine-7-carbonyl)-2-azaspiro[3.3]heptan-6-yl)-3-(3-(trifluoromethyl)phenyl)urea], the Ki in assay [1] and in assay [2] was less than 5 nM each time.

Turning to `CN(C(=O)Nc1cncc(C(F)(F)F)c1)C1CC2(C1)CN(C(=O)c1cnn3ccsc13)C2` [Example 47, 1-methyl-1-(2-(pyrazolo[5,1-b]thiazole-7-carbonyl)-2-azaspiro[3.3]heptan-6-yl)-3-(5-(trifluoromethyl)pyridin-3-yl)urea], the values for the inhibition constant Ki in assay [1] and in assay [2] were 5 to 25 nM and less than 5 nM, respectively.

As for `COc1ccc(OC(F)(F)F)cc1NC(=O)NC1CC2(C1)CN(C(=O)c1ccnc3ccsc13)C2` [Example 48, 1-(2-methoxy-5-(trifluoromethoxy)phenyl)-3-(2-(thieno[3,2-b]pyridine-7-carbonyl)-2-azaspiro[3.3]heptan-6-yl)urea], the inhibitory constant (Ki) in assay [1] is 5 to 25 nM; in assay [2], less than 5 nM.

For the molecule `O=C(Nc1cncc(C(F)(F)F)c1)NC1CC2(C1)CN(C(=O)c1ccnc3ccsc13)C2` [Example 49, 1-(2-(thieno[3,2-b]pyridine-7-carbonyl)-2-azaspiro[3.3]heptan-6-yl)-3-(5-(trifluoromethyl)pyridin-3-yl)urea], the inhibitory constant (Ki) in assay [1] and in assay [2] was less than 5 nM throughout.

Turning to `CN(C(=O)Nc1cccc(CC(F)(F)F)c1)C1CC2(C1)CN(C(=O)c1cnn3ccn(C)c13)C2` [Example 50, 1-methyl-1-(2-(1-methyl-1H-imidazo[1,2-b]pyrazole-7-carbonyl)-2-azaspiro[3.3]heptan-6-yl)-3-(3-(2,2,2-trifluoroethyl)phenyl)urea], the inhibition constant Ki in assay [1] is 5 to 25 nM; in assay [2], less than 5 nM.

In the case of `Cn1ccn2ncc(C(=O)N3CC4(CC(NC(=O)Nc5cncc(OC(F)(F)F)c5)C4)C3)c12` [Example 51, 1-(2-(1-methyl-1H-imidazo[1,2-b]pyrazole-7-carbonyl)-2-azaspiro[3.3]heptan-6-yl)-3-(5-(trifluoromethoxy)pyridin-3-yl)urea], the Ki in assay [1] is 5 to 25 nM; in assay [2] it was less than 5 nM.

As for `COc1ccc(OC(F)(F)F)cc1NC(=O)N(C)C1CC2(C1)CN(C(=O)c1cnn3ccn(C)c13)C2` [Example 52, 3-(2-methoxy-5-(trifluoromethoxy)phenyl)-1-methyl-1-(2-(1-methyl-1H-imidazo[1,2-b]pyrazole-7-carbonyl)-2-azaspiro[3.3]heptan-6-yl)urea], the Ki in assay [1] is 5 to 25 nM; in assay [2], less than 5 nM.

On to `CN(C(=O)Nc1cc(C#N)cc(C(F)(F)F)c1)C1CC2(C1)CN(C(=O)c1cnn3ccn(C)c13)C2` [Example 53, 3-(3-cyano-5-(trifluoromethyl)phenyl)-1-methyl-1-(2-(1-methyl-1H-imidazo[1,2-b]pyrazole-7-carbonyl)-2-azaspiro[3.3]heptan-6-yl)urea], for which the Ki is 5 to 25 nM in assay [1] and less than 5 nM in assay [2].

For the molecule `COc1ccc(OC(F)(F)F)cc1NC(=O)NC1CC2(C1)CN(C(=O)c1cnc3cccnn13)C2` [Example 54, 1-(2-(imidazo[1,2-b]pyridazine-3-carbonyl)-2-azaspiro[3.3]heptan-6-yl)-3-(2-methoxy-5-(trifluoromethoxy)phenyl)urea], the results for the Ki in assay [1] and in assay [2] were 5 to 25 nM and less than 5 nM, respectively.

On to `COc1ccc(OC(F)(F)F)cc1NC(=O)NC1CC2(C1)CN(C(=O)c1cnn3cccnc13)C2` [Example 55, 1-(2-methoxy-5-(trifluoromethoxy)phenyl)-3-(2-(pyrazolo[1,5-a]pyrimidine-3-carbonyl)-2-azaspiro[3.3]heptan-6-yl)urea], for which the Ki in assay [1] was 5 to 25 nM; in assay [2] it was less than 5 nM.

For `Cn1ccn2ncc(C(=O)N3CC4(CC(NC(=O)Nc5cc(C(F)(F)F)ccc5OCCN5CCOCC5)C4)C3)c12` [Example 56, 1-(2-(1-methyl-1H-imidazo[1,2-b]pyrazole-7-carbonyl)-2-azaspiro[3.3]heptan-6-yl)-3-(2-(2-morpholinoethoxy)-5-(trifluoromethyl)phenyl)urea], the inhibitory constant (Ki) in assay [1] was 5 to 25 nM; in assay [2], less than 5 nM.

Turning to `COc1ccc(OC(F)(F)F)cc1NC(=O)NC1CC2(C1)CN(C(=O)c1cnc3cnccn13)C2` [Example 57, 1-(2-(imidazo[1,2-a]pyrazine-3-carbonyl)-2-azaspiro[3.3]heptan-6-yl)-3-(2-methoxy-5-(trifluoromethoxy)phenyl)urea], the values for the Ki in assay [1] and in assay [2] were 5 to 25 nM and less than 5 nM, respectively.

Regarding `Cn1cc(C(F)(F)F)cc(NC(=O)NC2CC3(C2)CN(C(=O)c2cnn4ccsc24)C3)c1=O` [Example 58, 1-(1-methyl-2-oxo-5-(trifluoromethyl)-1,2-dihydropyridin-3-yl)-3-(2-(pyrazolo[5,1-b]thiazole-7-carbonyl)-2-azaspiro[3.3]heptan-6-yl)urea], the values for the inhibitory constant (Ki) in assay [1] and in assay [2] were 5 to 25 nM and less than 5 nM, respectively.

Regarding `O=C(Nc1cc(C(F)(F)F)ccn1)NC1CC2(C1)CN(C(=O)c1cnn3ccsc13)C2` [Example 59, 1-(2-(pyrazolo[5,1-b]thiazole-7-carbonyl)-2-azaspiro[3.3]heptan-6-yl)-3-(4-(trifluoromethyl)pyridin-2-yl)urea], the inhibition constant (Ki) in assay [1] was 5 to 25 nM; in assay [2], less than 5 nM.

On to `CN(C(=O)Nc1cc(F)cc(C(F)(F)F)c1)C1CC2(C1)CN(C(=O)c1cnn3ccsc13)C2` [Example 60, 3-(3-fluoro-5-(trifluoromethyl)phenyl)-1-methyl-1-(2-(pyrazolo[5,1-b]thiazole-7-carbonyl)-2-azaspiro[3.3]heptan-6-yl)urea], for which the Ki in assay [1] and in assay [2] was less than 5 nM throughout.

In the case of `Cc1ccc(OC(F)(F)F)cc1NC(=O)NC1CC2(C1)CN(C(=O)c1cnn3ccn(C)c13)C2` [Example 61, 1-(2-(1-methyl-1H-imidazo[1,2-b]pyrazole-7-carbonyl)-2-azaspiro[3.3]heptan-6-yl)-3-(2-methyl-5-(trifluoromethoxy)phenyl)urea], the Ki in assay [1] is 5 to 25 nM; in assay [2], less than 5 nM.

For the molecule `COc1ccc(OC(F)(F)F)cc1NC(=O)NC1CC2(C1)CN(C(=O)c1ncnc3ccsc13)C2` [Example 62, 1-(2-methoxy-5-(trifluoromethoxy)phenyl)-3-(2-(thieno[3,2-d]pyrimidine-4-carbonyl)-2-azaspiro[3.3]heptan-6-yl)urea], the values for the inhibition constant Ki in assay [1] and in assay [2] were 5 to 25 nM and less than 5 nM, respectively.

Regarding `Cn1ccn2ncc(C(=O)N3CC4(CC(NC(=O)Nc5cccc(C(F)F)c5)C4)C3)c12` [Example 63, 1-(3-(difluoromethyl)phenyl)-3-(2-(1-methyl-1H-imidazo[1,2-b]pyrazole-7-carbonyl)-2-azaspiro[3.3]heptan-6-yl)urea], the Ki was 5 to 25 nM in assay [1] and less than 5 nM in assay [2].

Turning to `CN(C(=O)Nc1cc(F)cc(C(F)(F)F)c1)C1CC2(C1)CN(C(=O)c1cnn3ccn(C)c13)C2` [Example 64, 3-(3-fluoro-5-(trifluoromethyl)phenyl)-1-methyl-1-(2-(1-methyl-1H-imidazo[1,2-b]pyrazole-7-carbonyl)-2-azaspiro[3.3]heptan-6-yl)urea], the Ki is 5 to 25 nM in assay [1] and less than 5 nM in assay [2].
